According to the supplement of paper PMC10307832:

compound: C1CCC(CC1)N(CCNCCC2=C3C(=C(C=C2)O)NC(=O)CO3)C(=O)CCNCCC4=CC(=C(C=C4)Cl)Cl [AZ505] + C[C@@H](Oc1cc(-c2cnn(C3CCNCC3)c2)cnc1N)c1c(Cl)ccc(F)c1Cl [Crizotinib] (partner 1 µM); experiment: relative viability (nuclei count vs DMSO), 5 days (fraction); higher = more cells survive; settings: first compound 0.08 µM
How it was run: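 Lung cancer cell lines, seeded in 1536-well plates, were treated the following day by pin tool with a single drug or with five library-drug doses (not always all listed) in √10 steps on top of a fixed anchor-drug dose. Cells were fixed and nuclei stained in one step after 5 days, and nuclei were counted. Relative viability is the nuclei count for treated wells divided by that for vehicle wells, reported as medians of duplicate plates.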

Compared with NCI-H1650, EBC-1 is lower in relative viability: 0.985 for the first, 0.21 for the second.

First: NCI-H1703
Second: NCI-H1993
The relative viability of the first is lower: 0.532 for the first, 0.928 for the second.

Compared with SK-LU-1, NCI-H838 is higher in relative viability: 0.608 for the first, 0.773 for the second.

Compared with LCLC-103H, NCI-H520 is lower in relative viability: 0.868 for the first, 0.744 for the second.

Compared with NCI-H2126, EMC-BAC-2 is lower in relative viability: 0.98 for the first, 0.791 for the second.

First: NCI-H2085
Second: Calu-6
The relative viability of the first is higher: 1.02 for the first, 0.735 for the second.

Compared with HCC-366, NCI-H1666 is higher in relative viability: 0.418 for the first, 0.903 for the second.

Going from NCI-H596 to LK-2, the relative viability falls from 0.922 to 0.234.

First: NCI-H2087
Second: SK-MES-1
The relative viability of the first is lower: 0.683 for the first, 0.901 for the second.

Compared with H3255, COR-L23 is lower in relative viability: 0.702 for the first, 0.42 for the second.

Compared with COR-L 105, IA-LM is higher in relative viability: 0.579 for the first, 0.695 for the second.

Going from LOU-NH91 to ChaGo-K-1, the relative viability rises from 0.713 to 1.17.

Going from NCI-H2170 to NCI-H2405, the relative viability falls from 1.07 to 0.634.

First: HOP-62
Second: A549
The relative viability of the first is higher: 0.849 for the first, 0.661 for the second.

Going from NCI-H441 to NCI-H1299, the relative viability rises from 0.615 to 0.959.

same assay, conditions: first compound 0.253 µM

First: NCI-H727
Second: NCI-H1650
The relative viability of the first is lower: 0.829 for the first, 1.12 for the second.

Compared with EBC-1, NCI-H1703 is higher in relative viability: 0.198 for the first, 0.716 for the second.

First: NCI-H1993
Second: SK-LU-1
The relative viability of the first is higher: 0.85 for the first, 0.731 for the second.

Going from NCI-H838 to LCLC-103H, the relative viability rises from 0.841 to 1.03.

Going from NCI-H520 to NCI-H2126, the relative viability rises from 0.899 to 1.05.

First: EMC-BAC-2
Second: NCI-H2085
The relative viability of the first is higher: 0.911 for the first, 0.848 for the second.

First: Calu-6
Second: HCC-366
The relative viability of the first is higher: 0.806 for the first, 0.365 for the second.

Compared with NCI-H1666, NCI-H596 is lower in relative viability: 1.03 for the first, 0.495 for the second.

First: LK-2
Second: NCI-H2087
The relative viability of the first is lower: 0.237 for the first, 0.743 for the second.

Compared with SK-MES-1, H3255 is lower in relative viability: 0.967 for the first, 0.854 for the second.

Going from COR-L23 to COR-L 105, the relative viability rises from 0.621 to 0.964.

Compared with IA-LM, LOU-NH91 is lower in relative viability: 0.769 for the first, 0.723 for the second.

Compared with ChaGo-K-1, NCI-H2170 is higher in relative viability: 1.04 for the first, 1.24 for the second.

First: NCI-H2405
Second: HOP-62
The relative viability of the first is lower: 0.596 for the first, 0.853 for the second.

Compared with A549, NCI-H441 is lower in relative viability: 0.849 for the first, 0.823 for the second.

With NCI-H1299 the relative viability was 1.06.

same assay, conditions: first compound 0.8 µM

First: NCI-H727
Second: NCI-H1650
The relative viability of the first is lower: 0.738 for the first, 0.991 for the second.

First: EBC-1
Second: NCI-H1703
The relative viability of the first is lower: 0.178 for the first, 0.58 for the second.

Compared with NCI-H1993, SK-LU-1 is lower in relative viability: 0.766 for the first, 0.649 for the second.

Compared with NCI-H838, LCLC-103H is higher in relative viability: 0.809 for the first, 0.987 for the second.

Going from NCI-H520 to NCI-H2126, the relative viability rises from 0.704 to 0.982.

Going from EMC-BAC-2 to NCI-H2085, the relative viability falls from 0.698 to 0.679.

Going from Calu-6 to HCC-366, the relative viability falls from 0.785 to 0.551.

Going from NCI-H1666 to NCI-H596, the relative viability falls from 0.96 to 0.799.

First: LK-2
Second: NCI-H2087
The relative viability of the first is lower: 0.211 for the first, 0.998 for the second.

Going from SK-MES-1 to H3255, the relative viability falls from 0.947 to 0.904.

Compared with COR-L23, COR-L 105 is higher in relative viability: 0.518 for the first, 0.75 for the second.

Compared with IA-LM, LOU-NH91 is lower in relative viability: 0.861 for the first, 0.722 for the second.

ChaGo-K-1 and NCI-H2170 are the same in relative viability: 1.12 for the first, 1.12 for the second.

First: NCI-H2405
Second: HOP-62
The relative viability of the first is lower: 0.586 for the first, 1.03 for the second.

Going from A549 to NCI-H441, the relative viability rises from 0.692 to 0.995.

NCI-H1299 showed a relative viability of 0.969.

same assay, conditions: first compound 2.53 µM

First: NCI-H727
Second: NCI-H1650
The relative viability of the first is lower: 0.805 for the first, 0.963 for the second.

Compared with EBC-1, NCI-H1703 is higher in relative viability: 0.203 for the first, 0.58 for the second.

Going from NCI-H1993 to SK-LU-1, the relative viability falls from 1.03 to 0.664.

First: NCI-H838
Second: LCLC-103H
The relative viability of the first is lower: 0.824 for the first, 1.01 for the second.

Compared with NCI-H520, NCI-H2126 is higher in relative viability: 0.727 for the first, 1.03 for the second.

First: EMC-BAC-2
Second: NCI-H2085
The relative viability of the first is lower: 0.735 for the first, 0.924 for the second.

Going from Calu-6 to HCC-366, the relative viability falls from 0.589 to 0.396.

Going from NCI-H1666 to NCI-H596, the relative viability falls from 0.997 to 0.972.

First: LK-2
Second: NCI-H2087
The relative viability of the first is lower: 0.21 for the first, 0.752 for the second.

First: SK-MES-1
Second: H3255
The relative viability of the first is lower: 0.904 for the first, 0.913 for the second.

Compared with COR-L23, COR-L 105 is higher in relative viability: 0.567 for the first, 0.963 for the second.

Going from IA-LM to LOU-NH91, the relative viability rises from 0.75 to 0.778.

Going from ChaGo-K-1 to NCI-H2170, the relative viability rises from 0.958 to 1.26.

First: NCI-H2405
Second: HOP-62
The relative viability of the first is lower: 0.565 for the first, 0.964 for the second.

Going from A549 to NCI-H441, the relative viability falls from 0.776 to 0.699.

With NCI-H1299 the relative viability was 0.926.

same assay, conditions: first compound 8 µM

Compared with NCI-H727, NCI-H1650 is higher in relative viability: 0.827 for the first, 0.915 for the second.

First: EBC-1
Second: NCI-H1703
The relative viability of the first is lower: 0.184 for the first, 0.917 for the second.

Compared with NCI-H1993, SK-LU-1 is lower in relative viability: 0.798 for the first, 0.714 for the second.

Going from NCI-H838 to LCLC-103H, the relative viability rises from 0.743 to 0.969.

First: NCI-H520
Second: NCI-H2126
The relative viability of the first is lower: 0.728 for the first, 1.08 for the second.

Compared with EMC-BAC-2, NCI-H2085 is higher in relative viability: 0.761 for the first, 0.877 for the second.

Going from Calu-6 to HCC-366, the relative viability falls from 0.748 to 0.534.

First: NCI-H1666
Second: NCI-H596
The relative viability of the first is lower: 0.954 for the first, 0.985 for the second.

Going from LK-2 to NCI-H2087, the relative viability rises from 0.215 to 0.838.

First: SK-MES-1
Second: H3255
The relative viability of the first is lower: 0.916 for the first, 0.918 for the second.

Going from COR-L23 to COR-L 105, the relative viability rises from 0.385 to 0.793.

Going from IA-LM to LOU-NH91, the relative viability falls from 1.07 to 0.72.

First: ChaGo-K-1
Second: NCI-H2170
The relative viability of the first is lower: 1.15 for the first, 1.22 for the second.

First: NCI-H2405
Second: HOP-62
The relative viability of the first is lower: 0.63 for the first, 0.88 for the second.

Compared with A549, NCI-H441 is higher in relative viability: 0.608 for the first, 0.738 for the second.

Work on NCI-H1299 yielded a relative viability of 0.988.
